Here are results for two compounds from PMC7560238, “Development of a Thymoquinone Polymeric Anticancer Nanomedicine through Optimization of Polymer Molecular Weight and Nanoparticle Architecture” (Pharmaceutics, 2020).

In general, AUC(0-inf) refers to the area under the concentration-time curve extrapolated to infinity. Read a high AUC(0-inf) as more exposure. A word on the Cmax: it is the highest concentration seen after dosing. For orientation: Tmax means the time from dosing to the highest level. By half-life is commonly meant the time in which the quantity being followed falls by half. Read a high half-life as slow decline. For orientation: IC50 means the concentration that gives 50% inhibition. Higher therefore signals weaker potency in that assay.

Where two headings read alike, the source gives them in different places.

On the set-up of data set [1]: method as in earlier work. The settings on record: cirsiliol from a formulation similar to F2-NC, cited from earlier work.
Data set [2] in a line: Pilot pharmacokinetic study after oral administration. The format is in vivo. Particulars: male, Balb/c, mouse, mice, oral gavage, 6 mg/kg TQ, plasma. As to the method:
Thirty male Balb/c mice (8–10 weeks old) were housed in plastic cages in an air-conditioned room with free access to food and water and were fasted overnight prior to the experiment. On the day of the experiment, animals were divided into two groups and each group was administered a single dose of 6 mg/kg TQ either as suspension in ultrapure water or in the form of TQ NPs (F2-NC) via oral gavage. At 1, 2, 4, 6, and 24 h post-administration, three animals from each group were randomly selected and euthanized by diethyl ether, and blood (~1 mL) was collected from the jugular vein into heparinized plastic tubes. Blood samples were left to sit for 45 min at room temperature then centrifuged at 5500 rpm for 30 min at room temperature. Approximately 0.5 mL of plasma was collected into microtubes, and plasma samples were stored at −80 °C until further analysis. The animal protocol for this work was approved by the Animal Care and Use Committee of Al-Zaytoonah University of Jordan (decision no. 1/5/2019–2020). All work was conducted in accordance with the Helsinki guidelines for animal research and all applicable Jordanian governmental rules and guidelines.
The system consisted of a Shimadzu LCMS-8030 quadrupole mass spectrometer (Kyoto, Japan) equipped with an electrospray ionization (ESI) source, and a Shimadzu Prominence 30A Ultra-Fast Liquid Chromatography system composed of a system controller, degasser, binary pump and auto-sampler. Samples were eluted on a C8 column (5 μm, 50 × 2.1 mm) coupled with a guard column (5 μm, 10 × 2.1 mm) at 20 °C. The isocratic mobile phase consisted of acetonitrile (ACN) and 0.2% formic acid (50:50, v/v) at a flow rate of 0.2 mL min^−1 and an injection volume of 20 μL. TQ samples were ionized by the ESI source in negative ion mode ([…] spray voltage). The dwell time was set to 50 ms and the probe temperature was 400 °C. Quantification was performed using multiple reaction monitoring (MRM) of the transitions at m/z 164.0→134.1.
TQ was dissolved in ACN to make a stock solution at 1 mg mL^−1. TQ working standard solutions were prepared by serial dilutions of the stock solution in the mobile phase. Calibration curve samples were prepared by spiking the appropriate TQ working standard solutions into blank plasma obtained from untreated mice to achieve concentrations from 2 to 1000 ng mL^−1.
To 100 μL of plasma (spiked with calibration curve samples or plasma extracted from treated mice), ethyl acetate (1 mL) was added and vortex mixed for 30 s. […] Samples were then injected into the LC-MS/MS system to quantify the plasma concentration of TQ at each time point. […] Plasma t1/2 was determined by fitting the elimination phase of the plots to the first-order model.

Another data set concerns human dermal fibroblasts. Put plainly: Antiproliferative activity, SRB assay, normal cell line. The settings on record: Fibroblast, 72 h. It counts as cell-based. As to the method: (§1) Antiproliferative activity was evaluated in various human cancer cell lines (MCF-7, PANC-1, and Caco-2) as well as a normal cell line (human dermal fibroblasts). All cell lines were obtained from the American Type Culture Collection (ATCC, Manassas, VA, USA). MCF-7, PANC-1, and Caco-2 cells were cultured in high glucose Dulbecco’s modified Eagle medium (DMEM; Eurobio Scientific, Les Ulis, France). Fibroblasts were cultured in Iscove’s modified Dulbecco’s medium (IMDM; Eurobio Scientific, Les Ulis, France). All media were supplemented with 10% fetal bovine serum, 1% L-glutamine, and 1% penicillin/streptomycin. The cell lines were maintained at 37 °C in a 5% CO2 atmosphere with 95% humidity. For the cytotoxicity experiments, cells were cultured in 96-well plates at density of 6 × 10^3 cells per well to ensure exponential growth throughout the experimental period and to ensure a linear relationship between absorbance and cell number when analyzed by the sulforhodamine B (SRB) assay. […] One hundred microliters of 10 mM Tris base solution was then added to each well, and the absorbance was recorded on a microplate reader (BioTek Instruments, Winooski, VT, USA) at 570 nm. Results were expressed as % cell viability compared to the control (untreated cells). […]
In general terms: Sulforhodamine B stains cellular protein and so reports cell mass.

A further data set has as its system MCF-7. As to the kind of experiment: Antiproliferative activity, SRB assay, MCF-7. The format is cell-based, human. As to the method:
as §1

In a further data set the test system is Caco-2. As to the kind of experiment: Antiproliferative activity, SRB assay, Caco-2. The format is cell-based, human. As to the method: as §1
The next data set concerns PANC-1. As to the kind of experiment: Antiproliferative activity, SRB assay, PANC-1. The format is cell-based, human. As to the method: as §1

For `COc1cc2oc(-c3ccc(O)c(O)c3)cc(=O)c2c(O)c1OC` [cirsiliol], the cumulative release in data set [1] (after 96 h) is ~ 40%; in data set [1] (within the first 48 h), ~ 20%.
The compound `CC1=CC(=O)C(C(C)C)=CC1=O` [TQ, 2-isopropyl-5-methylbenzo-1,4-quinone] came in with a total exposure AUC(0-inf) in data set [2] of 4670 ± 508 ng·h/mL. Also, in data set [2], the Cmax was determined as 388 ± 41.5 ng/mL. Besides, the Tmax in data set [2] was determined as 4 h. Besides, in data set [2] (elimination phase first-order fit), the half-life was 5 h. For the same compound, the IC50 came to 58.9 ± 10.3 µM with human dermal fibroblasts; 20.5 ± 3.7 µM in the data set on MCF-7 (Homo sapiens, MCF7, MCF-7, 72 h, SRB assay); 30.4 ± 0.5 µM in the data set with Caco-2 (Homo sapiens, Caco-2, 72 h, SRB assay); 8.8 ± 2.2 µM in the data set on PANC-1 (Homo sapiens, PANC-1, 72 h, SRB assay). The entries for the “SI (selectivity index)” value in the data set on MCF-7 (IC50 in fibroblasts divided by IC50 in MCF-7), in the data set on Caco-2 (IC50 in fibroblasts divided by IC50 in Caco-2) and in the data set with PANC-1 (IC50 in fibroblasts divided by IC50 in PANC-1) were 2.9, 1.9 and 6.7, respectively.
